# According to PubChem BioAssay (NCI):
#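 96-well plates; 48 h exposure; 5 concentrations. Endpoints by linear interpolation between flanking doses. Not reached: highest tested concentration assigned. At the GI50, growth is halved. TGI denotes the concentration required for complete inhibition of growth.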
# Key:
# Assay in all cases: NCI tumour cell line growth inhibition, 48 h
# SF-295 CNS = system: SF-295 CNS
# UO-31 renal = system: UO-31 renal
# COLO 205 colon = system: COLO 205 colon
# SF-268 CNS = system: SF-268 CNS
# SNB-75 CNS = system: SNB-75 CNS
# NCI-H522 lung = system: NCI-H522 lung
# K-562 leukemia = system: K-562 leukemia
# HCT-15 colon = system: HCT-15 colon
# MDA-MB-435 = system: MDA-MB-435
# UACC-62 melanoma = system: UACC-62 melanoma
# T-47D breast = system: T-47D breast
# OVCAR-5 ovarian = system: OVCAR-5 ovarian
# SF-539 CNS = system: SF-539 CNS
# 786-0 renal = system: 786-0 renal
# HT29 colon = system: HT29 colon
# MALME-3M melanoma = system: MALME-3M melanoma
# SNB-19 CNS = system: SNB-19 CNS
# SR leukemia = system: SR leukemia
# OVCAR-3 ovarian = system: OVCAR-3 ovarian
# CCRF-CEM leukemia = system: CCRF-CEM leukemia
# PC-3 prostate = system: PC-3 prostate
# NCI-H23 lung = system: NCI-H23 lung
# M14 melanoma = system: M14 melanoma
# BT-549 breast = system: BT-549 breast
# RPMI-8226 leukemia = system: RPMI-8226 leukemia
# RXF 393 renal = system: RXF 393 renal
# NCI-H460 lung = system: NCI-H460 lung
# UACC-257 melanoma = system: UACC-257 melanoma
# MDA-MB-231 breast = system: MDA-MB-231 breast
# HL-60(TB) leukemia = system: HL-60(TB) leukemia
# MCF7 breast = system: MCF7 breast
# A498 renal = system: A498 renal
# CAKI-1 renal = system: CAKI-1 renal
# SN12C renal = system: SN12C renal
# HCT-116 colon = system: HCT-116 colon
# HOP-92 NSCLC = system: HOP-92 NSCLC
# EKVX NSCLC = system: EKVX NSCLC
# LOX IMVI melanoma = system: LOX IMVI melanoma
# DU-145 prostate = system: DU-145 prostate
# SK-MEL-28 melanoma = system: SK-MEL-28 melanoma
# SK-MEL-5 melanoma = system: SK-MEL-5 melanoma
# IGROV1 ovarian = system: IGROV1 ovarian
# OVCAR-4 ovarian = system: OVCAR-4 ovarian
# SK-OV-3 ovarian = system: SK-OV-3 ovarian
# NCI/ADR-RES ovarian = system: NCI/ADR-RES ovarian
# MOLT-4 leukemia = system: MOLT-4 leukemia
# HCC-2998 colon = system: HCC-2998 colon
# U251 CNS = system: U251 CNS
# OVCAR-8 ovarian = system: OVCAR-8 ovarian
# KM12 colon = system: KM12 colon
# SK-MEL-2 melanoma = system: SK-MEL-2 melanoma
# HS 578T breast = system: HS 578T breast
# A549 NSCLC = system: A549 NSCLC
# SW-620 colon = system: SW-620 colon
# HOP-62 NSCLC = system: HOP-62 NSCLC
# TK-10 renal = system: TK-10 renal
compound,measurement,setting,value
C=C1C(=O)O[C@H]2[C@H]1CC/C(COC(=O)C(=O)c1cn(Cc3ccccc3)c3ccccc13)=C\CC[C@@]1(C)O[C@@H]21,GI50,SF-295 CNS,10.5 µM
same,TGI,SF-295 CNS,25.6 µM
same,GI50,UO-31 renal,1.61 µM
same,TGI,UO-31 renal,3.1 µM
same,GI50,COLO 205 colon,2.08 µM
same,TGI,COLO 205 colon,4.46 µM
same,GI50,SF-268 CNS,2.16 µM
same,TGI,SF-268 CNS,6.3 µM
same,GI50,SNB-75 CNS,1.83 µM
same,TGI,SNB-75 CNS,8.4 µM
same,GI50,NCI-H522 lung,1.63 µM
same,TGI,NCI-H522 lung,3.42 µM
same,GI50,K-562 leukemia,2.66 µM
same,TGI,K-562 leukemia,10.4 µM
same,GI50,HCT-15 colon,1.45 µM
same,TGI,HCT-15 colon,3.69 µM
same,GI50,MDA-MB-435,2.41 µM
same,TGI,MDA-MB-435,7.77 µM
same,GI50,UACC-62 melanoma,1.8 µM
same,TGI,UACC-62 melanoma,4.42 µM
same,GI50,T-47D breast,2.04 µM
same,TGI,T-47D breast,4.85 µM
same,GI50,OVCAR-5 ovarian,2.56 µM
same,TGI,OVCAR-5 ovarian,6.82 µM
same,GI50,SF-539 CNS,1.9 µM
same,TGI,SF-539 CNS,3.83 µM
same,GI50,786-0 renal,1.93 µM
same,TGI,786-0 renal,4.03 µM
same,GI50,HT29 colon,2.02 µM
same,TGI,HT29 colon,4.53 µM
same,GI50,MALME-3M melanoma,2.08 µM
same,TGI,MALME-3M melanoma,4.39 µM
same,GI50,SNB-19 CNS,7.21 µM
same,TGI,SNB-19 CNS,25.9 µM
same,GI50,SR leukemia,1 µM
same,TGI,SR leukemia,> 100 µM
same,GI50,OVCAR-3 ovarian,2.18 µM
same,TGI,OVCAR-3 ovarian,5.65 µM
same,GI50,CCRF-CEM leukemia,1.27 µM
same,TGI,CCRF-CEM leukemia,9.02 µM
same,GI50,PC-3 prostate,2.14 µM
same,TGI,PC-3 prostate,4.35 µM
same,GI50,NCI-H23 lung,1.67 µM
same,TGI,NCI-H23 lung,3.56 µM
same,GI50,M14 melanoma,1.78 µM
same,TGI,M14 melanoma,4.13 µM
same,GI50,BT-549 breast,1.8 µM
same,TGI,BT-549 breast,4.1 µM
same,GI50,RPMI-8226 leukemia,2.09 µM
same,TGI,RPMI-8226 leukemia,8.04 µM
same,GI50,RXF 393 renal,1.89 µM
same,TGI,RXF 393 renal,3.43 µM
same,GI50,NCI-H460 lung,2.84 µM
same,TGI,NCI-H460 lung,12.2 µM
same,GI50,UACC-257 melanoma,2.16 µM
same,TGI,UACC-257 melanoma,5.21 µM
same,GI50,MDA-MB-231 breast,2.17 µM
same,TGI,MDA-MB-231 breast,5.01 µM
same,GI50,HL-60(TB) leukemia,2.26 µM
same,TGI,HL-60(TB) leukemia,7 µM
same,GI50,MCF7 breast,1.19 µM
same,TGI,MCF7 breast,3.06 µM
same,GI50,A498 renal,18.5 µM
same,TGI,A498 renal,35.2 µM
same,GI50,CAKI-1 renal,2.96 µM
same,TGI,CAKI-1 renal,34.5 µM
same,GI50,SN12C renal,2.3 µM
same,TGI,SN12C renal,6.03 µM
same,GI50,HCT-116 colon,1.62 µM
same,TGI,HCT-116 colon,3.36 µM
same,GI50,HOP-92 NSCLC,1.88 µM
same,TGI,HOP-92 NSCLC,4.38 µM
same,GI50,EKVX NSCLC,2.06 µM
same,TGI,EKVX NSCLC,5.96 µM
same,GI50,LOX IMVI melanoma,1.21 µM
same,TGI,LOX IMVI melanoma,2.57 µM
same,GI50,DU-145 prostate,2.96 µM
same,TGI,DU-145 prostate,11.3 µM
same,GI50,SK-MEL-28 melanoma,2.08 µM
same,TGI,SK-MEL-28 melanoma,4.98 µM
same,GI50,SK-MEL-5 melanoma,1.99 µM
same,TGI,SK-MEL-5 melanoma,4.1 µM
same,GI50,IGROV1 ovarian,1.92 µM
same,TGI,IGROV1 ovarian,3.84 µM
same,GI50,OVCAR-4 ovarian,4.19 µM
same,TGI,OVCAR-4 ovarian,> 100 µM
same,GI50,SK-OV-3 ovarian,18.9 µM
same,TGI,SK-OV-3 ovarian,56.7 µM
same,GI50,NCI/ADR-RES ovarian,2.75 µM
same,TGI,NCI/ADR-RES ovarian,9.83 µM
same,GI50,MOLT-4 leukemia,2.35 µM
same,TGI,MOLT-4 leukemia,6.83 µM
same,GI50,HCC-2998 colon,1.91 µM
same,TGI,HCC-2998 colon,4.26 µM
same,GI50,U251 CNS,4.01 µM
same,TGI,U251 CNS,14.7 µM
same,GI50,OVCAR-8 ovarian,3.04 µM
same,TGI,OVCAR-8 ovarian,11.4 µM
same,GI50,KM12 colon,3.06 µM
same,TGI,KM12 colon,11.5 µM
same,GI50,SK-MEL-2 melanoma,2.09 µM
same,TGI,SK-MEL-2 melanoma,4.71 µM
same,GI50,HS 578T breast,3.35 µM
same,TGI,HS 578T breast,29.9 µM
same,GI50,A549 NSCLC,2.13 µM
same,TGI,A549 NSCLC,6.35 µM
same,GI50,SW-620 colon,2.33 µM
same,TGI,SW-620 colon,7.77 µM
same,GI50,HOP-62 NSCLC,2.03 µM
same,TGI,HOP-62 NSCLC,5.51 µM
same,GI50,TK-10 renal,2.33 µM
same,TGI,TK-10 renal,5.47 µM
